Assays:
[1] = molecular target: T1, rec. HDAC-1 purified from HEK 293 cells (Homo sapiens, UniProt Q13547); experiment: Assay for inhibition of histone deacetylase (HDAC), quenched peptide / Lys C fluorescence; assay type: biochemical; conditions: 10 concentrations starting at 30 uM, 90 min incubation
T1 construct: made in house; host or cells: HEK 293 cells
Source text: A) Assay for Inhibition of Histone Deacetylase (HDAC)
HDAC deacetylates lysines in histone H4. A 17 aa peptide with TAMRA at the C-terminus and QSY7 at the N-terminus was used as a substrate. Following deacetylation by HDAC the enzyme Lys C is able to cleave the peptide resulting in disappearence of the quench effect and a high signal. Inhibition of HDAC by compounds results in low signals because Lys C has no substrate for cleaving and the quench effect persists.
For dose response curves 10 concentrations were diluted starting at 30 uM. 10 ul compound dilution were put into each well of a 384 well plate. 10 ul HDAC (rec. HDAC-1 purified from HEK 293 cells; activity was assessed for each preparation) were added. 10 ul peptide was added (1 uM final concentration). After 90 min incubation at room temperature the reaction was stopped by addition of 20 ul test buffer including 3 ug/ml Lys C and 0.075% SDS. After overnight incubation the fluorescent signal of TAMRA was measured at absorption 544 nm, emission 590 nm by Victor 2.

[2] = tested on: E-cadherin expression in A549; experiment: E-cadherin upregulation assay (ELISA, with WST-1 proliferation in the same well); assay type: cell-based; conditions: A549 human lung carcinoma cells; % proliferation subtracted from % E-cadherin expression; 10 concentrations starting at 40 uM; read-out: E-cadherin upregulation EC50 [μM] (Assay B)
Source text: B) E-cadherin Upregulation Assay
E-cadherin as an adhesion molecule is important for connection of the cells and integrity of tissues. […] Upregulation of the protein in cells where there is insufficient E-cadherin is regarded as a marker for the differentiation of the tumor cell. This corresponds to leaving the undifferentiated tumor cell status.
The compounds described are able to upregulate expression of E-cadherin in A549. In parallel, the proliferation of the cells is examined. The activity of an E-cadherin upregulator is defined as an increase in E-cadherin expression determined by an ELISA. Cell proliferation is also determined by WST-1 in the same well.
The assay was performed in 384-well format. […] 5000 cells per well were seeded in culture medium with 10% FCS at day 1. At day 2 compounds in different concentrations starting at 40 uM were added at a final concentration of DMSO of 0.5%. At day 4, WST-1 reagent was added and absorption was measured after 45 min (450 nm/690 nm).
The medium was aspirated, 100 ul fixation solution was added per well and discarded after 30 min, followed by addition of 100 ul blocking solution. […] Absorption was measured at 405 nm.
% proliferation of cells is substracted from % E-cadherin expression resulting in Delta. The dose response curve resulting from 10 concentrations was calculated using XLfit. […]

[3] = tested on: SW620 colon carcinoma cells; experiment: SW620 colon carcinoma xenograft in nude mice, tumor volume; assay type: in vivo, Balb/C nu/nu-mice; conditions: oral, once daily, day 8 to day 27
Method: Female Balb/C nu/nu-mice(n=12 per group), aged 8-10 weeks, were subcutaneously injected with […] SW620 colon carcinoma cells. On day 6, animals with tumor volumes of about 200 mm^3 were randomly assigned to treatment groups. The test compound was administered as a fine suspension in 0.5% methylcellulose with an application volume of 10 ml/kg based on actual body weights. Oral treatment started on day 8 and continued through to day 27 on a once daily, 7 times per week treatment schedule.
The volume of the tumor was determined from the following equation:
Volume of a tumor=½×(major axis)×(minor axis)2

T1 sequence (Q13547 whole entry): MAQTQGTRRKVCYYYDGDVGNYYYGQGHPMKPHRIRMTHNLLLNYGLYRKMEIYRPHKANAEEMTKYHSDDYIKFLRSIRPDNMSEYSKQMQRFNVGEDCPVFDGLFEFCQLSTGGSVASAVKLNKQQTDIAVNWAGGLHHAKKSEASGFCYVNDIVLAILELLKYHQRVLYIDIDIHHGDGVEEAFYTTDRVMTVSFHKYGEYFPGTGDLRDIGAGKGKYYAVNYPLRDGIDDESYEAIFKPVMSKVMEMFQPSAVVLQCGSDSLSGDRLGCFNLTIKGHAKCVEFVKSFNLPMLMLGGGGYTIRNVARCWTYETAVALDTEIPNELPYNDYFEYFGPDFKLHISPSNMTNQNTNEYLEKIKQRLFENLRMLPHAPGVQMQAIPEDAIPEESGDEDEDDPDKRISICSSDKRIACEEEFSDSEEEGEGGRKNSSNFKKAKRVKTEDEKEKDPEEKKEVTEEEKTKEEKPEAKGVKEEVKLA

IC50 [1]: 11.1 µM
EC50 [2]: 5.9 µM
Structure (SMILES): Nc1ccccc1NC(=O)c1cscn1 [Compound 38, Thiazole-4-carboxylic acid (2-amino-phenyl)-amide]
Tumor volume (mm^3) ([3]; end of the study, female Balb/C nu/nu mice with s.c. SW620 tumors): 1029.0 mm^3
% inhibition vs. control ([3]; tumor volume at the end of the study, SW620 xenograft): 53%

Source: patent US6946462B2, “N-monoacylated derivatives of o-phenylenediamines, their analogs and their use as pharmaceutical agents” (Hoffmann-La Roche Inc., priority 2001, dated 2005)
